# Patent US9346794B1, “Substituted 4-pyridones and their use as inhibitors of neutrophil elastase activity” (Boehringer Ingelheim International GmbH, priority 2012, dated 2016)
# Target: Human neutrophil elastase (Homo sapiens (Human), UniProt P08246)
# Test: Human Neutrophil Elastase Assay
# Type: biochemical
# Settings: substrate MeOSuc-Ala-Ala-Pro-Val-AMC 250 μM, fluorescence, pH 7.5
# Protocol: Human Neutrophil Elastase Assay
# All other materials were of the highest grade commercially available.
# The following buffers were used: Compound buffer: 100 mM Tris, 500 mM NaCl, adjusted to pH 7.5; Assay buffer: 100 mM Tris, 500 mM NaCl, adjusted to pH 7.5, containing 0.01% BSA.
# Assay conditions: Test compounds were prediluted in DMSO and subsequently in compound buffer (5% DMSO final). […] After inactivation of the enzyme, fluorescence intensities were measured at 380 nm excitation and 460 nm emission wavelengths.
# Each plate contains wells with a high value control (DMSO+enzyme+substrate) and wells with a low value control (DMSO+inactivated enzyme+substrate). IC50 values were estimated using a sigmoidal concentration response curve with variable slope. Means of low values were taken as 0%, means of high values as 100%. IC50 values of selected compound in the Neutrophil Elastase assay: […]
# Chain of Human neutrophil elastase (P08246 30-247): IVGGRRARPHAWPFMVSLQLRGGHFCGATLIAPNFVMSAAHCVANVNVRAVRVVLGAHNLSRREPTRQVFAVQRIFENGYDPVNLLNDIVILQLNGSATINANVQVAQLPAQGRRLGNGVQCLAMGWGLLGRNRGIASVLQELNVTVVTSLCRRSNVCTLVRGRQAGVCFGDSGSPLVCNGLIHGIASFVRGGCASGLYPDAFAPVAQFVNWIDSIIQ
row,Compound,IC50 [nM]
1,"Cc1c(-c2cccc(C(F)F)c2)c(=O)c(C(=O)NCc2ccc(S(C)(=O)=NC#N)cc2)cn1-c1ccncc1 (single isomer, unassigned) [Example 40]",4
2,CCn1cc(C(=O)NCc2ccc(S(=O)(CC)=NC#N)cc2)c(=O)c(-c2cccc(C(F)(F)F)c2)c1C (centres unmarked) [Example 10],1.2
3,Cc1c(-c2cccc(C(F)(F)F)c2)c(=O)c(C(=O)NCc2ccc(S(C)(=O)=NC#N)cc2)cn1C1CCCOC1 (centres unmarked) [Example 55],1.8
4,"Cc1c(-c2ccc(F)c(C(F)F)c2)c(=O)c(C(=O)NCc2ccc(S(C)(=O)=NC#N)cc2)cn1C(C)C (single isomer, unassigned) [Example 42]",4.7
5,Cc1c(-c2cccc(C(F)(F)F)c2)c(=O)c(C(=O)NCc2ccc(S(C)(=O)=NC#N)cc2F)cn1C(C)C (centres unmarked) [Example 14],1.5
6,CCS(=O)(=NC#N)c1ccc(CNC(=O)c2cn(-c3ccnn3C)c(C)c(-c3cccc(C(F)F)c3)c2=O)cc1 (centres unmarked) [Example 36],1
7,"Cc1c(-c2cccc(C(F)(F)F)c2)c(=O)c(C(=O)NCc2ccc(S(=O)(=NC#N)C3CC3)cc2)cn1C(C)C (centres unmarked) [Example 63, 1-Isopropyl-6-methyl-4-oxo-5-(3-trifluoromethyl-phenyl)-1,4-dihydro-pyridine-3-carboxylic acid 4-(S-cyclopropyl-N-cyanosulfonimidoyl)-benzylamide]",1.4
8,Cc1c(-c2cccc(C(F)F)c2)c(=O)c(C(=O)NCc2ccc(S(C)(=O)=NS(C)(=O)=O)cc2)cn1C(C)C (centres unmarked) [Example 35],8
9,"Cc1c(-c2cccc(C(F)(F)F)c2)c(=O)c(C(=O)NCc2ccc(S(=O)(=NC#N)C(C)C)cc2)cn1C1CC1 (single isomer, unassigned) [Example 22B]",1.2
10,CCn1cc(C(=O)NCc2ccc(S(=O)(=NC#N)C(C)C)cc2)c(=O)c(-c2cccc(C(F)(F)F)c2)c1C (centres unmarked) [Example 11],< 1
11,"CCn1cc(C(=O)NCc2ccc(S(=O)(CC)=NC#N)cc2)c(=O)c(-c2cccc(C(F)(F)F)c2)c1C (single isomer, unassigned) [Example 10A]",2.7
12,Cc1c(-c2cccc(C(F)(F)F)c2)c(=O)c(C(=O)NCc2ccc(S(C)(=O)=NS(C)(=O)=O)cc2)cn1C(C)C (centres unmarked) [Example 17],7.3
13,"Cc1c(-c2ccnc(C(F)(F)F)c2)c(=O)c(C(=O)NCc2ccc(S(C)(=O)=NC#N)cc2)cn1-c1ccccn1 (single isomer, unassigned) [Example 44]",14.9
14,Cc1ccncc1-n1cc(C(=O)NCc2ccc(S(C)(=O)=NC#N)cc2)c(=O)c(-c2cccc(C(F)(F)F)c2)c1C (centres unmarked) [Example 57],1.7
15,Cc1c(-c2cccc(C(F)F)c2)c(=O)c(C(=O)NCc2ccc(S(C)(=O)=NC#N)c(F)c2)cn1C(C)C (centres unmarked) [Example 32],1.1
16,"CCn1cc(C(=O)NCc2ccc(S(=O)(=NC#N)C(C)C)cc2)c(=O)c(-c2cccc(C(F)F)c2)c1C (single isomer, unassigned) [Example 30A]",1.8
17,"Cc1c(-c2ccnc(C(F)(F)F)c2)c(=O)c(C(=O)NCc2ccc(S(C)(=O)=NC#N)cc2)cn1C(C)C (single isomer, unassigned) [Example 3B, 1-Isopropyl-2-methyl-4-oxo-2′-trifluoromethyl-1,4-dihydro-[3,4′]-bipyridinyl-5-carboxylic acid 4-(N-cyano-S-methylsulfonimidoyl)-benzylamide]",5.1
18,"Cc1c(-c2cccc(C(F)(F)F)c2)c(=O)c(C(=O)NCc2ccc(S(C)(=O)=NC#N)cc2)cn1Cc1ccc(C#N)cc1 (centres unmarked) [Example 9, 1-(4-Cyano-benzyl)-6-methyl-4-oxo-5-(3-trifluoromethyl-phenyl)-1,4-dihydro-pyridine-3-carboxylic acid 4-(N-cyano-S-methylsulfonimidoyl)-benzylamide]",< 1
19,"CCS(=O)(=NC#N)c1ccc(CNC(=O)c2cn(C3CC3)c(C)c(-c3cccc(C(F)(F)F)c3)c2=O)cc1 (single isomer, unassigned) [Example 21B]",2.1
20,"CCn1cc(C(=O)NCc2ccc(S(=O)(CC)=NC#N)cc2)c(=O)c(-c2cccc(C(F)F)c2)c1C (single isomer, unassigned) [Example 29A]",2.2
